In ChEMBL document CHEMBL1148702, “Orally bioavailable potent soluble epoxide hydrolase inhibitors” (J Med Chem, 2007):

Assays:
in vivo = conditions: dog, plasma, po, 0.3 mg/kg
Liver microsomes = conditions: human

Row | SMILES | AUC (in vivo) | Stability (Liver microsomes)
1 | O=C(O)CCCCCCCCCCCNC(=O)NC12CC3CC(CC(C3)C1)C2 | 0.0667 µM·h | –
2 | O=C(NC12CC3CC(CC(C3)C1)C2)N[C@H]1CC[C@@H](OCc2c(Cl)cccc2Cl)CC1 | – | 26%
3 | CC(C)Oc1cc(F)c(CO[C@H]2CC[C@@H](NC(=O)NC34CC5CC(CC(C5)C3)C4)CC2)c(F)c1 | – | 29%
4 | O=C(NC12CC3CC(CC(C3)C1)C2)N[C@H]1CC[C@@H](OCc2ccc(Br)cc2)CC1 | – | 20%
5 | CCOCCOCCOCCCCCNC(=O)NC12CC3CC(CC(C3)C1)C2 | 0.317 µM·h | –
6 | O=C(NC12CC3CC(CC(C3)C1)C2)N[C@H]1CC[C@H](OCc2ccc(Br)cc2)CC1 | – | 41%
7 | O=C(NC12CC3CC(CC(C3)C1)C2)N[C@H]1CC[C@H](OCc2ccccc2Cl)CC1 | – | 54%
8 | O=C(NC12CC3CC(CC(C3)C1)C2)N[C@H]1CC[C@H](OCc2c(Cl)cccc2Cl)CC1 | – | 51%
9 | O=C(NC12CC3CC(CC(C3)C1)C2)N[C@H]1CC[C@H](Oc2ccc(Br)cc2)CC1 | – | 23%
10 | O=C(NC12CC3CC(CC(C3)C1)C2)N[C@H]1CC[C@H](Oc2ccc(F)cc2)CC1 | – | 69%
11 | O=C(NC12CC3CC(CC(C3)C1)C2)N[C@H]1CC[C@@H](Oc2ccc(Br)cc2)CC1 | – | 35%
12 | COc1ccc(O[C@H]2CC[C@@H](NC(=O)NC34CC5CC(CC(C5)C3)C4)CC2)cc1 | – | 14%
13 | O=C(NC12CC3CC(CC(C3)C1)C2)N[C@H]1CC[C@@H](Oc2ccc([N+](=O)[O-])cc2)CC1 | – | 15%
14 | O=C(NC12CC3CC(CC(C3)C1)C2)N[C@H]1CC[C@@H](OCc2ccccc2Cl)CC1 | – | 25%
15 | O=C(NC12CC3CC(CC(C3)C1)C2)N[C@H]1CC[C@@H](Oc2ccc(F)cc2)CC1 | – | 21%
16 | O=C(NC12CC3CC(CC(C3)C1)C2)N[C@H]1CC[C@H](OCc2c(F)cccc2F)CC1 | – | 43%
17 | O=C(NC12CC3CC(CC(C3)C1)C2)N[C@H]1CC[C@@H](OCc2c(F)cccc2F)CC1 | – | 19%
18 | O=C(NC12CC3CC(CC(C3)C1)C2)N[C@H]1CC[C@H](OCc2ccccc2)CC1 | – | 67%
19 | Cc1ccccc1CO[C@H]1CC[C@H](NC(=O)NC23CC4CC(CC(C4)C2)C3)CC1 | – | 67%
20 | O=C(NC12CC3CC(CC(C3)C1)C2)N[C@H]1CC[C@@H](Oc2cc(F)cc(F)c2)CC1 | – | 20%
21 | Cc1ccccc1CO[C@H]1CC[C@@H](NC(=O)NC23CC4CC(CC(C4)C2)C3)CC1 | – | 14%
22 | CC(C)Oc1cc(F)c(CO[C@H]2CC[C@H](NC(=O)NC34CC5CC(CC(C5)C3)C4)CC2)c(F)c1 | – | 34%
23 | COc1ccc(O[C@H]2CC[C@H](NC(=O)NC34CC5CC(CC(C5)C3)C4)CC2)cc1 | – | 82%
